Assay results from patent publication US6518279B2, “Cyclopentanone dihydropyridine compounds useful as potassium channel openers” (Abbott Laboratories, priority 1999, dated 2003).
≈ marks a conversion by molar mass, not a printed value. Read-outs that look alike come from different tables or passages of the source.

Columns and labels:
[1] = system: Landrace pig bladder strips; test: Functional potassium channel opening activity in isolated bladder strips (field-stimulated twitch); conditions: for Index: ED50 of P1075 divided by ED50 of test agonist in a given tissue, averaged; for EC50: Sus scrofa, negative logarithm of ED50, Landrace pig bladder strips, read-out: pD2 (converted); for Efficacy (% P1075): maximal efficacy on the stimulated twitch, Landrace pig bladder strips
Experimental: Compounds were evaluated for functional potassium channel opening activity using tissue strips obtained from Landrace pig bladders.
Landrace pig bladders were obtained from female Landrace pigs of 9-30 kg. Landrace pigs were euthanized with an intraperitoneal injection of pentobarbital solution, Somlethal®, J. A. Webster Inc., Sterling Mass. The entire bladder was removed and immediately placed into Krebs Ringer bicarbonate solution (composition, mM: NaCl, 120; NaHCO3, 20; dextrose, 11; KCl, 4.7; CaCl2, 2.5; MgSO4, 1.5; KH2PO4, 1.2; K2EDTA, 0.01, equilibrated with 5% CO2/95% O2 pH 7.4 at 37° C.). Propranolol (0.004 mM) was included in all of the assays to block β-adrenoceptors. The trigonal and dome portions were discarded. Strips 3-5 mm wide and 20 mm long were prepared from the remaining tissue cut in a circular fashion. The mucosal layer was removed. One end was fixed to a stationary glass rod and the other to a Grass FT03 transducer at a basal preload of 1.0 gram. Two parallel platinum electrodes were included in the stationary glass rod to provide field stimulation of 0.05 Hz, 0.5 milli-seconds at 20 volts. This low frequency stimulation produced a stable twitch response of 100-500 centigrams. Tissues were allowed to equilibrate for at least 60 minutes and primed with 80 mM KCl. A control concentration response curve (cumulative) was generated for each tissue using the potassium channel opener P1075 as the control agonist. […] After a 60 minute rinsing period, a concentration response curve (cumulative) was generated for the test agonist in the same fashion as that used for the control agonist P1075. The maximal efficacy of each compounds (expressed as % relative to P1075) is reported. The amount of agent necessary to cause 50% of the agent's maximal response (ED50) was calculated using “ALLFIT” (DeLean et al., Am. J. Physiol. 235, E97 (1980)), hereby incorporated by reference, and agonist potencies were expressed as pD2 (the negative logarithm). Agonist potencies were also expressed as an index relative to P1075. The index was calculated by dividing the ED50 for P1075 by the ED50 for the test agonist in a given tissue. Each tissue was used for only one test agonist, and the indices obtained from each tissue were averaged to provide an average index of potency.

[2] = system: guinea-pig urinary bladder (GPB) cells; test: Membrane hyperpolarization (MHP) assay, potassium channel opening activity, DiBAC(4)3 / FLIPR; assay type: cell-based; conditions: Cavia porcellus; for Emax: maximal steady-state hyperpolarization in GPB cells, relative to 10 μM P1075 (100%), read-out: Maximal Response (% P1075); for EC50: membrane hyperpolarization in GPB cells
Experimental: Compounds were evaluated for potassium channel opening activity using primary cultured guinea-pig urinary bladder (GPB) cells.
For the preparation of urinary bladder smooth muscle cells, urinary bladders were removed from male guinea-pigs (Hartley, Charles River, Wilmington, Mass.) weighing 300-400 g and placed in ice-cold Ca^2+-free Krebs solution (Composition, mM: KCl, 2.7; KH2PO4, 1.5; NaCl, 75; Na2HPO4, 9.6; Na2HPO4·7H2O, 8; MgSO4, 2; glucose, 5; HEPES, 10; pH 7.4). Cells were isolated by enzymatic dissociation as previously described with minor modifications (Klockner, U. and Isenberg, G., Pflugers Arch. (1985), 405, 329-339), hereby incorporated by reference. The bladder was cut into small sections and incubated in 5 mL of the Kreb's solution containing 1 mg/mL collagenase (Sigma, St. Louis, Mo.) and 0.2 mg/mL pronase (Calbiochem, La Jolla, Calif.) with continuous stirring in a cell incubator for 30 minutes. The mixture was then centrifuged at 1300×g for 5 minutes, and the pellet resuspended in Dulbecco's PBS (GIBCO, Gaithersburg, Md.) and recentrifuged to remove residual enzyme. The cell pellet was resuspended in 5 mL growth media (composition: Dulbecco's modified Eagle's medium supplemented with 10% fetal bovine serum, 100 units/mL penicillin, 100 units/mL streptomycin and […] amphotericin B) and further dissociated by pipetting the suspension through a flame-polished Pasteur pipette and passing it through a polypropylene mesh membrane (Spectrum, Houston, Tex.). The cell density was adjusted to 100,000 cells/mL by resuspension in growth media. Cells were plated in clear-bottomed black 96-well plates (Packard) for membrane potential studies at a density of 20,000 cells/well and maintained in a cell incubator with 90% air: 10% CO2 until confluent. Cells were confirmed to be of smooth muscle type by cytoskeletal staining using a monoclonal mouse anti human-α-smooth muscle actin (Biomeda, Foster City, Calif.)
Functional activity at potassium channels was measured by evaluating changes in membrane potential using the bis-oxonol dye DiBAC(4)3 (Molecular Probes) in a 96-well cell-based kinetic assay system, Fluorescent Imaging Plate Reader (FLIPR) (K. S. Schroeder et al., J. Biomed. Screen., v. 1 pp. 75-81 (1996)), hereby incorporated by reference. DiBAC(4)3 is an anionic potentiometric probe which partitions between cells and extracellular solution in a membrane potential-dependent manner. With increasing membrane potential (for example, K^+ depolarization), the probe further partitions into the cell; this is measured as an increase in fluorescence due to dye interaction with intracellular lipids and proteins. Conversely, decreasing membrane potential (hyperpolarization by potassium channel openers) evokes a decrease in fluorescence.
Confluent guinea-pig urinary bladder cells cultured in black clear-bottomed 96-well plates were rinsed twice with […] assay buffer (composition, mM: HEPES, 20; NaCl, 120; KCl, 2; CaCl2, 2; MgCl2, 1; glucose, 5; pH 7.4 at 25° C.) containing 5 μM DiBAC(4)3 and incubated with […] of the buffer in a cell incubator for 30 minutes at 37° C. to ensure dye distribution across the membrane. After recording the baseline fluorescence for 5 minutes, the reference or test compounds, prepared at 10 times the concentration in the assay buffer, were added directly to the wells. Changes in fluorescence were monitored for an additional 25 minutes. Hyperpolarization responses were corrected for any background noise and were normalized to the response observed with 10 μM of the reference compound P1075 (assigned as 100%), a potent opener of smooth muscle KATP channels (Quast et al., Mol. Pharmacol., v. 43 pp. 474-481 (1993)), hereby incorporated by reference.
Routinely, five concentrations of P1075 or test compounds (log or half-log dilutions) were evaluated and the maximal steady-state hyperpolarization values (expressed as % relative to P1075) plotted as a function of concentration. […]

[3] = Aqueous solubility, 50 mM NaH2PO4 buffers, reverse-phase HPLC; assay type: physicochemical; conditions: aqueous buffer, thermodynamic from solid, shaking 60 hours, room temperature
Experimental: Aqueous solubilities were determined by shaking 60 hours at room temperature in 50 mM NaH2PO4 buffers at pH's 6.5 and 7.4. Assays were performed using reverse-phase HPLC. The solubilities are expressed in nanomoles per milliliter in Table 4.

bladder contractions = test: In-vivo bladder efficacy protocol (isovolumetric contractions model); design: species or system rat; conditions: dose reducing area under the curve of bladder contractions by 30%, iv, anesthetized male CD rats
Source text: In-vivo bladder efficacy protocol (isovolumetric contractions model)
Male CD rats (400-450 g) were anesthetized with urethane (0.6 g/kg ip+0.6 g/kg sc). The left femoral artery and vein were cannulated with polyethylene (PE-50) tubing for the measurement of arterial pressure and test compound administration respectively. A third polyethylene catheter (PE-60) was inserted 3-4 mm into the apex of the bladder dome and secured using a 5-0 silk purse string suture. The bladder was emptied via this catheter and additionally by applying slight manual pressure on the lower abdomen. The urinary catheter was connected using a Y-tube connector to both a pressure transducer and a syringe pump. […] After the contractions stabilized to a consistent pattern, bladder pressure and arterial pressure were monitored for 20 minutes before and after a dose of the vehicle (equal parts of β-cyclodextrin stock solution (100 g β-cyclodextrin dissolved in 200 ml) and sterile water) alone. […] Mean arterial pressure and area under the curve of the bladder contractions were determined from the respective waveforms using a Modular Instruments, Inc. computerized data acquisition system and averaged over the last ten minutes of each twenty minute period. […]
Example 3, of the present invention (Table 3, FIG. 1), was dosed at 0.01, 0.1 and 1 μmol/kg. The AUC ED30 for Example 3 was determined to be 0.1 μmol/kg.

[4] = pH 6.5, 50 mM NaH2PO4 buffer, read-out: Aqueous solubility pH 6.5
[5] = pH 7.4, 50 mM NaH2PO4 buffer, read-out: Aqueous solubility pH 7.4

Compound	Index [1]	EC50 [1]	Efficacy (% P1075) [1]	Emax [2]	EC50 [2]	solubility at 60 h [3, 4]	solubility at 60 h [3, 5]	AUC ED30 (bladder contractions)	melting point	Effect on stimulated twitch ([1]; 10^−9 to 10^−5 M, cumulative, dose dependent)
O=C1CCC2=C1C(c1ccc(F)c(Br)c1)C1=C(CCC1=O)N2 [Example 1, 8-(3-Bromo-4-fluorophenyl)-2,3,4,5,6,8-hexahydrodicyclopenta[b,e]pyridine-1,7-dione]	0.48	158 nM	98 % P1075	102%	71 nM	205 µM (≈ 74.3 µg/mL)	227 µM (≈ 82.2 µg/mL)	–	–	–
N#Cc1cccc(C2C3=C(CCC3=O)NC3=C2C(=O)CC3)c1 [Example 2, 8-(3-Cyanophenyl)-2,3,4,5,6,8-hexahydrodicyclopenta[b,e]pyridine-1,7-dione]	0.017	6310 nM	96 % P1075	65%	5300 nM	1300 µM (≈ 377 µg/mL)	1290 µM (≈ 375 µg/mL)	–	–	–
O=C1CCC2=C1C(c1ccc(Cl)c([N+](=O)[O-])c1)C1=C(CCC1=O)N2 [Example 3, 8-(4-Chloro-3-nitrophenyl)-2,3,4,5,6,8-hexahydrodicyclopenta[b,e]pyridine-1,7-dione]	0.35	251 nM	98 % P1075	113%	53 nM	129 µM (≈ 44.5 µg/mL)	129 µM (≈ 44.5 µg/mL)	0.1 µmol/kg	–	–
O=C1CCC2=C1C(c1cccc([N+](=O)[O-])c1)C1=C(CCC1=O)N2 [Example 4, 8-(3-Nitrophenyl)-2,3,4,5,6,8-hexahydrodicyclopenta[b,e]pyridine-1,7-dione]	–	–	–	123%	340 nM	158 µM (≈ 49 µg/mL)	164 µM (≈ 50.9 µg/mL)	–	–	–
O=C1CCC2=C1C(c1ccc(F)c(Cl)c1)C1=C(CCC1=O)N2 [Example 5, 8-(3-Chloro-4-fluorophenyl)-2,3,4,5,6,8-hexahydrodicyclopenta[b,e]pyridine-1,7-dione]	–	–	–	72%	140 nM	–	–	–	–	–
O=C1CCC2=C1C(c1ccc(Cl)c(Cl)c1)C1=C(CCC1=O)N2 [Example 6, 8-(3,4-Dichlorophenyl)-2,3,4,5,6,8-hexahydrodicyclopenta[b,e]pyridine-1,7-dione]	–	–	–	94%	100 nM	–	–	–	–	–
O=C1CCC2=C1C(c1ccc3nonc3c1)C1=C(CCC1=O)N2 [Example 7, 8-(2,1,3-benzoxadiazol-5-yl)-2,3,4,5,6,8-hexahydrodicyclopenta[b,e]pyridine-1,7-dione]	–	–	–	98%	130 nM	–	–	–	272 to 273 °C	–
O=C1CCC2=C1C(c1ccc(F)c(I)c1)C1=C(CCC1=O)N2 [Example 8, 8-(3-Iodo-4-fluorophenyl)-2,3,4,5,6,8-hexahydrodicyclopenta[b,e]pyridine-1,7-dione]	–	–	–	93%	13 nM	–	–	–	–	–
O=C1C=CC2=C1C(c1ccc(F)c(Br)c1)C1=C(CCCC1=O)N2 (centres unmarked) [Example 9, 9-(3-bromo-4-fluorophenyl)-5,6,7,9-tetrahydro-1H-cyclopenta[b]quinoline-1,8(4H)-dione]	–	–	–	100%	63 nM	–	–	–	–	–
CC1=C(C(=O)O)C(c2ccc(F)c(Br)c2)C2=C(CCC2=O)N1 (centres unmarked) [Example 10, 4-(3-bromo-4-fluorophenyl)-2-methyl-5-oxo-4,5,6,7-tetrahydro-1H-cyclopenta[b]pyridine-3-carboxylic acid]	–	–	–	104%	2680 nM	–	–	–	211 to 214 °C	–
CCC(C)(C)N=C(NC#N)Nc1cccnc1 [Example P1075, reference compound]	–	–	–	–	–	–	–	–	–	completely eliminated the stimulated twitch
